From US9234176B2, “Chemically defined production of cardiomyocytes from pluripotent stem cells” (The Board of Trustees of the Leland Stanford Junior …, priority 2012, dated 2016)

Experiments:
hiPSC = experiment: Analysis of components of defined media for hiPSC cardiac differentiation (contraction score); assay type: cell-based, human; design: 9 components subtracting: cardiac differentiation score / 2 components subtracting: cardiac differentiation score: key: 0: no cardiac differentiation or cell death; +: some contraction; ++: >50% contraction; +++: >75% contraction; details: for 21 components subtracting: cardiac differentiation score: a) each of the 21 components of B27 without insulin subtracted one at a time, score of medium lacking the component; for 10 components subtracting: cardiac differentiation score: b) second medium of 10 essential components, each subtracted one at a time; for 9 components subtracting: cardiac differentiation score: c) 9-component medium; for 9 components subtracting: cardiac differentiation score / 9 components (with 4 at 10x) subtracting: cardiac differentiation score / 6 components subtracting: cardiac differentiation score: each component subtracted; for 9 components (with 4 at 10x) subtracting: cardiac differentiation score: e) third medium with increased concentrations; for 6 components subtracting: cardiac differentiation score: f) fourth 6-component medium
Excerpt: Development of a Chemically Defined Cardiac Differentiation Platform. We first generated eleven pluripotent hiPSC lines under chemically defined conditions (FIG. 7) on a chemically synthesized vitronectin peptide substrate, with nonenzymatic passaging (FIG. 8). […] To formulate a chemically defined differentiation protocol, we concentrated on the observation that three unrelated media formations are capable of supporting growth factor-based monolayer cardiac differentiation: RPMI+B27-ins, supplemented StemPro-34, and LI-APEL (Table 5). […] Beginning with the 21 components of B27, we subtracted one component at a time and assessed for continued high efficiency differentiation (Table 6a-c) and also assessed components from two other two media (supplemented StemPro-34 and LI-APEL) that yielded benefits (Table 6d-f). We concluded that hiPSC cardiac differentiation was successful in a media consisting of […]: RPMI 1640 basal medium, L-ascorbic acid 2-phosphate (AA 2-P), and BSA (Table 6g).
Other additions to cardiac differentiation media tested were 10.7 μg/mL recombinant human transferrin, […], 1 μg/mL linoleic acid, 1 μg/mL linolenic acid, 2 ng/mL triiodo-l-thyronine, 2 μg/mL L-carnitine, 1 μg/mL D,L-alpha-tocopherol acetate, 100 ng/mL retinol acetate, 1 μg/mL ethanolamine, 20 ng/mL corticosterone, 9 ng/mL progesterone, 47 ng/mL lipoic acid, 100 ng/mL retinol, 1 μg/mL D,L-alpha-tocopherol, 100 ng/mL biotin, 2.5 ug/mL catalase, 2.5 μg/mL glutathione, 2.5 μg/mL superoxide dismutase, 2 μg/mL L-carnitine, 15 μg/mL D(+)-galactose, 16.1 μg/mL putrescine, 450 μM 1-thioglycerol, 55 μM 2-mercaptoethanol, 64 μg/mL L-ascorbic acid 2-phosphate (all from Sigma-Aldrich).

hPSC = experiment: Directed cardiac differentiation of hPSC in minimal media (Example 1); assay type: cell-based, human; details: for further enhancement of differentiation by pathway inhibitors: small molecule inhibitors at the later stage of differentiation; for Wnt signaling antagonist effective for cardiac differentiation: at a concentration of 5 μM
Experimental: Directed Cardiac Differentiation Procedure. (volumes provided are for a T25 flask; adjust volumes proportionately for larger vessels) Day 0 (day 4 after passage): Aspirate medium, and replace with 5 mL of minimal media (CDM3, D3, D4, or D11) supplemented with 6 uM of CHIR-99021 (CHIR-99021 can be used at 4-15 μM). Place flasks in a regular ambient O2, 5% CO2 incubator. Day 2: 48 h. Aspirate media and replace with 5 mL of minimal media (CDM3, D3, D4, or D11). Day 3: 72 h. Aspirate media and replace with 5 mL of minimal media (CDM3, D3, D4, or D11) supplemented with 0.5 uM C59 (C59 may be used at 0.5-5 μM). Day 5: Aspirate media and replace with 5 mL of minimal media (CDM3, D3, D4, or D11). From day 5 onwards media should be changed every 2 days with minimal media (CDM3, D3, D4, or D11).
From day 0 to day 2 (d0-d2), minimal media (CDM3, D3, D4, or D11) was supplemented with the Wnt signaling agonist CHIR-99021 (6-10 uM 48 h, d0-d2), which triggers canonical Wnt/β-Catenin signaling that leads to the subsequent up-regulation of BMP4 and activin A. Media is then exchanged to non-supplemented minimal media (CDM3, D3, D4, or D11) for 1 day followed by contact with a Wnt signaling antagonist (e.g., C59: 0.5-5 uM, 48 h, d3-d5) for 2 days. At day 5, 7, and 9 minimal media (CDM3, D3, D4, or D11) is exchanged for fresh media, and contraction begins between d7 and d10. At day 11, media is exchanged to a variant of minimal media (CDM3, D3, D4, or D11) without […] that results in the depletion of non-cardiomyocytes due to a lack of glycogen stores. Media was exchanged on day 13 for fresh media lacking glucose. At day 15, media was exchanged for fresh minimal media (CDM3, D3, D4, or D11) (containing glucose).
The presence of cardiomyocytes was verified in a number of different ways, for example: flow cytometry of cells contacted with an antibody specific for a cardiomyocyte marker (TNNT2); imaging of cells stained with antibodies specific for α-Sarcomeric actin (red) and Troponin T (TNNT2); electrophysiological profiling; and evaluating responsiveness to known cardioactive drugs (e.g., Norepinephrine). Assays performed on multiple different cell lines (including several hESC lines and over 30 hiPSC lines) confirmed that the subject methods are highly consistent and highly efficient, as very little variability was observed among the different cell lines.

[1] = d) component at 10 x concentration

Compound: C[N+](C)(C)C[C@H](O)CC(=O)[O-] [L-carnitine]
- 21 components subtracting: cardiac differentiation score (hiPSC): 0
- 10 components subtracting: cardiac differentiation score (hiPSC): 0
- 9 components subtracting: cardiac differentiation score (hiPSC): 0
- 9 components with the addition of: cardiac differentiation score (hiPSC; [1]): 0

Compound: Cc1c(C)c2c(c(C)c1O)CCC(C)(CCCC(C)CCCC(C)CCCC(C)C)O2 [D,L-a-tocopherol (vit E), D,L-a-tocopherol]
- 21 components subtracting: cardiac differentiation score (hiPSC): ++ (>50% contraction)

Compound: O=C[C@H](O)[C@@H](O)[C@@H](O)[C@H](O)CO [D(+)-galactose]
- 21 components subtracting: cardiac differentiation score (hiPSC): ++ (>50% contraction)

Compound: CC(=O)Oc1c(C)c(C)c2c(c1C)CCC(C)(CCCC(C)CCCC(C)CCCC(C)C)O2 [D,L-a-tocopherol acetate]
- 21 components subtracting: cardiac differentiation score (hiPSC): 0
- 10 components subtracting: cardiac differentiation score (hiPSC): 0
- 9 components subtracting: cardiac differentiation score (hiPSC): 0
- 9 components with the addition of: cardiac differentiation score (hiPSC; [1]): +++ (>75% contraction)
- 9 components (with 4 at 10x) subtracting: cardiac differentiation score (hiPSC): +++ (>75% contraction)

Compound: O=[Se](O)O [Sodium selenite]
- 21 components subtracting: cardiac differentiation score (hiPSC): 0
- 10 components subtracting: cardiac differentiation score (hiPSC): 0
- 9 components subtracting: cardiac differentiation score (hiPSC): 0
- 9 components with the addition of: cardiac differentiation score (hiPSC; [1]): +++ (>75% contraction)
- 6 components subtracting: cardiac differentiation score (hiPSC): +++ (>75% contraction)

Compound: NC(=O)c1ccc(-c2nc(-c3ccc4c(c3)OCO4)c(-c3ccccn3)[nH]2)cc1 [B8431542]
- further enhancement of differentiation by pathway inhibitors (hPSC): did not further enhance the differentiation

Compound: Catalase
- 21 components subtracting: cardiac differentiation score (hiPSC): ++ (>50% contraction)

Compound: O=C(O)CCCC[C@@H]1CCSS1 (racemic) [Lipoic acid]
- 21 components subtracting: cardiac differentiation score (hiPSC): ++ (>50% contraction)

Compound: C[C@]12C[C@H](O)[C@H]3[C@@H](CCC4=CC(=O)CC[C@@]43C)[C@@H]1CC[C@@H]2C(=O)CO [Corticosterone]
- 21 components subtracting: cardiac differentiation score (hiPSC): 0
- 10 components subtracting: cardiac differentiation score (hiPSC): ++ (>50% contraction)

Compound: NCCO [Ethanolamine]
- 21 components subtracting: cardiac differentiation score (hiPSC): ++ (>50% contraction)

Compound: C[C@]12CCC(=O)C=C1CC[C@@H]1[C@@H]2[C@@H](O)C[C@@]2(C)[C@H]1CC[C@]2(O)C(=O)CO [Hydrocortisone]
- 9 components with the addition of: cardiac differentiation score (hiPSC; d) addition of components from the other media formulae of Table 5): +

Compound: O=C(O)CCCC[C@@H]1SC[C@@H]2NC(=O)N[C@@H]21 [Biotin (vit B7), Biotin]
- 21 components subtracting: cardiac differentiation score (hiPSC): ++ (>50% contraction)

Compound: Holo transferrin: B27 component
- 21 components subtracting: cardiac differentiation score (hiPSC): 0
- 10 components subtracting: cardiac differentiation score (hiPSC): 0
- 9 components subtracting: cardiac differentiation score (hiPSC): 0
- 9 components with the addition of: cardiac differentiation score (hiPSC; [1]): +
- 6 components subtracting: cardiac differentiation score (hiPSC): +++ (>75% contraction)

Compound: CC(=O)OC/C=C(C)/C=C/C=C(C)/C=C/C1=C(C)CCCC1(C)C [Retinol acetate (vit A), Retinol acetate]
- 21 components subtracting: cardiac differentiation score (hiPSC): 0
- 10 components subtracting: cardiac differentiation score (hiPSC): 0
- 9 components subtracting: cardiac differentiation score (hiPSC): 0
- 9 components with the addition of: cardiac differentiation score (hiPSC; [1]): +++ (>75% contraction)
- 9 components (with 4 at 10x) subtracting: cardiac differentiation score (hiPSC): +++ (>75% contraction)

Compound: CC(=O)[C@H]1CC[C@H]2[C@@H]3CCC4=CC(=O)CC[C@]4(C)[C@H]3CC[C@]12C [Progesterone]
- 21 components subtracting: cardiac differentiation score (hiPSC): ++ (>50% contraction)

Compound: CC1=C(/C=C/C(C)=C/C=C/C(C)=C/CO)C(C)(C)CCC1 [Retinol, all trans (vit. A), Retinol, all trans]
- 21 components subtracting: cardiac differentiation score (hiPSC): ++ (>50% contraction)

Compound: O=C1[C@H](Cc2ccc(O)cc2)N2C(=O)CCN(C(=O)NCc3ccccc3)[C@H]2CN1Cc1cccc2ccccc12 [ICG-001, (6S,9aS)-6-(4-hydroxybenzyl)-N-benzyl-8-(naphthalen-1-ylmethyl)-4,7-diaxo-hexahydro-2H-pyrazino[1,2-a]pyrimidine-1(6H)-carboxamide]
- Wnt signaling antagonist effective for cardiac differentiation (hPSC): not found to be effective

Compound: Cc1ccc2nc(NC(=O)CSc3nc4c(c(=O)n3-c3ccccc3)SCC4)sc2c1 [IWP-2, N-(6-Methyl-2-benzothiazoyl)-2-[(3,4,6,7-tetrahydro-4-oxo-3-phenylthieno[3,2-d]pyrimidin-2-yl)thio]-acetamide]
- Wnt signaling antagonist effective for cardiac differentiation (hPSC): effective

Compound: CCCCC/C=C\C/C=C\CCCCCCCC(=O)O [Linoleic acid]
- 21 components subtracting: cardiac differentiation score (hiPSC): 0
- 10 components subtracting: cardiac differentiation score (hiPSC): 0
- 9 components subtracting: cardiac differentiation score (hiPSC): 0
- 9 components with the addition of: cardiac differentiation score (hiPSC; [1]): +
- 9 components (with 4 at 10x) subtracting: cardiac differentiation score (hiPSC): 0
- 6 components subtracting: cardiac differentiation score (hiPSC): +++ (>75% contraction)

Compound: CC/C=C\C/C=C\C/C=C\CCCCCCCC(=O)O [Linolenic acid]
- 21 components subtracting: cardiac differentiation score (hiPSC): 0
- 10 components subtracting: cardiac differentiation score (hiPSC): 0
- 9 components subtracting: cardiac differentiation score (hiPSC): 0
- 9 components with the addition of: cardiac differentiation score (hiPSC; [1]): +
- 9 components (with 4 at 10x) subtracting: cardiac differentiation score (hiPSC): 0
- 6 components subtracting: cardiac differentiation score (hiPSC): +++ (>75% contraction)

Compound: C[S+]([O-])c1ccc(-c2nc(-c3ccncc3)c(-c3ccc(F)cc3)[nH]2)cc1 (centres unmarked) [SB203580]
- further enhancement of differentiation by pathway inhibitors (hPSC): did not further enhance the differentiation

Compound: c1ccc2c(-c3cnn4cc(-c5ccc(N6CCNCC6)cc5)cnc34)ccnc2c1 [LDN193189]
- further enhancement of differentiation by pathway inhibitors (hPSC): did not further enhance the differentiation

Compound: N[C@@H](CCC(=O)N[C@@H](CS)C(=O)NCC(=O)O)C(=O)O [Glutathione (reduced)]
- 21 components subtracting: cardiac differentiation score (hiPSC): ++ (>50% contraction)

Compound: COc1ccccc1-n1c(SCC(=O)Nc2nc3ccc(C)cc3s2)nc2c(c1=O)SCC2 [IWP-4, 2-(3,4,6,7-tetrahydro-3-(2-methoxyphenyl)-4-oxothieno[3,2-d]pyrimidin-2-ylthio)-N-(6-methylbenzo[d]thiazol-2-yl)acetamide]
- Wnt signaling antagonist effective for cardiac differentiation (hPSC): effective

Compound: O=c1[nH]c(-c2ccc(C(F)(F)F)cc2)nc2c1CSCC2 [XAV939, 3,5,7,8-Tetrahydro-2-[4-(trifluoromethyl)phenyl]-4H-thiopyrano[4,3-d]pyrimidin-4-one]
- Wnt signaling antagonist effective for cardiac differentiation (hPSC): effective

Compound: O=C(Nc1cccc2cccnc12)c1ccc(N2C(=O)C3C4C=CC(C4)C3C2=O)cc1 (centres unmarked) [IWR-1, 4-(1,3,3a,4,7,7a-Hexahydro-1,3-dioxo-4,7-methano-2H-isoindol-2-yl)-N-8-quinolinyl-Benzamide]
- Wnt signaling antagonist effective for cardiac differentiation (hPSC): effective

Compound: N[C@@H](Cc1cc(I)c(Oc2ccc(O)c(I)c2)c(I)c1)C(=O)O [T3 (triiodol-l-thyronine), triiodol-l-thyronine]
- 21 components subtracting: cardiac differentiation score (hiPSC): 0
- 10 components subtracting: cardiac differentiation score (hiPSC): 0
- 9 components subtracting: cardiac differentiation score (hiPSC): 0
- 9 components with the addition of: cardiac differentiation score (hiPSC; [1]): +++ (>75% contraction)
- 9 components (with 4 at 10x) subtracting: cardiac differentiation score (hiPSC): +++ (>75% contraction)

Compound: NCCCCN [Putrescine]
- 21 components subtracting: cardiac differentiation score (hiPSC): ++ (>50% contraction)
